ChEMBL document CHEMBL3425433, “Discovery of bicyclic pyrazoles as class III histone deacetylase SIRT1 and SIRT2 inhibitors” (Bioorg Med Chem Lett, 2015)
Active and inactive are the calls of the source.

How the values were obtained:
[1] = biological target: Histone deacetylase 4 (Homo sapiens) (UniProt P56524); assay: Inhibition of HDAC4 (unknown origin)
[2] = biological target: T1, Protein deacetylase HDAC6 (Homo sapiens) (UniProt Q9UBN7); assay: Inhibition of HDAC6 (unknown origin)
T1 sequence (whole entry): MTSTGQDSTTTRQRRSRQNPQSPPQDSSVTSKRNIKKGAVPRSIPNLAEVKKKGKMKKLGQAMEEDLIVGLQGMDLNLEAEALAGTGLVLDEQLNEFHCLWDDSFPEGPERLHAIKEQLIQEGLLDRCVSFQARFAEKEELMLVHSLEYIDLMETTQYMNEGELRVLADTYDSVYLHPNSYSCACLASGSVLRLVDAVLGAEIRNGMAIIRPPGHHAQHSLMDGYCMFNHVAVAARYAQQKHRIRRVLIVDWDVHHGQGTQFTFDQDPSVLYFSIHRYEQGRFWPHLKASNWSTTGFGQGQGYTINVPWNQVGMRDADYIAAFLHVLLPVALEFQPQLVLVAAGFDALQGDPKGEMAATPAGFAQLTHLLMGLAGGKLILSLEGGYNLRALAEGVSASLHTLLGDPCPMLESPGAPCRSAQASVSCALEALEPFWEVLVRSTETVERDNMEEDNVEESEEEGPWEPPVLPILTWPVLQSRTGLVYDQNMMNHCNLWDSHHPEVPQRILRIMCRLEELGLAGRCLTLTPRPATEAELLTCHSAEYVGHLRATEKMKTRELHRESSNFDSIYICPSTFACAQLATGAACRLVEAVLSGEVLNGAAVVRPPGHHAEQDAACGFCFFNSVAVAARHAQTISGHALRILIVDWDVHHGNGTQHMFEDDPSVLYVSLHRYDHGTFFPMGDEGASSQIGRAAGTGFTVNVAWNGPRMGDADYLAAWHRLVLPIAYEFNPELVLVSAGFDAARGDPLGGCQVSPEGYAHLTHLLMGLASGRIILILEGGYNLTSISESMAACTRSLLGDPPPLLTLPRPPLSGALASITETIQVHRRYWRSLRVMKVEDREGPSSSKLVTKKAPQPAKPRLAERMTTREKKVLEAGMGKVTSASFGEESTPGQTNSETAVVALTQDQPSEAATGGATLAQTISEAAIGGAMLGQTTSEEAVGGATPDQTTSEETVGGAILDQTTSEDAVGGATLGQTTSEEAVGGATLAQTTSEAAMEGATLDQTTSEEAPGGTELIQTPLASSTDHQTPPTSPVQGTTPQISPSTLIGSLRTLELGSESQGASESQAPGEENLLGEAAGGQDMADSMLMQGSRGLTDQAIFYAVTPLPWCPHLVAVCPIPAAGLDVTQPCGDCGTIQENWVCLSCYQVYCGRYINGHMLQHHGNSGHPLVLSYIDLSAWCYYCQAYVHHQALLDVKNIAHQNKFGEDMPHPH

Histone deacetylase 2 = Histone deacetylase 2 (Homo sapiens, UniProt Q92769); assay: Inhibition of HDAC2 (unknown origin)
[3] = biological target: Histone deacetylase 5 (Homo sapiens) (UniProt Q9UQL6); assay: Inhibition of HDAC5 (unknown origin)
[4] = biological target: T2, Histone deacetylase 8 (Homo sapiens) (UniProt Q9BY41); assay: Inhibition of HDAC8 (unknown origin)
T2 sequence (whole entry): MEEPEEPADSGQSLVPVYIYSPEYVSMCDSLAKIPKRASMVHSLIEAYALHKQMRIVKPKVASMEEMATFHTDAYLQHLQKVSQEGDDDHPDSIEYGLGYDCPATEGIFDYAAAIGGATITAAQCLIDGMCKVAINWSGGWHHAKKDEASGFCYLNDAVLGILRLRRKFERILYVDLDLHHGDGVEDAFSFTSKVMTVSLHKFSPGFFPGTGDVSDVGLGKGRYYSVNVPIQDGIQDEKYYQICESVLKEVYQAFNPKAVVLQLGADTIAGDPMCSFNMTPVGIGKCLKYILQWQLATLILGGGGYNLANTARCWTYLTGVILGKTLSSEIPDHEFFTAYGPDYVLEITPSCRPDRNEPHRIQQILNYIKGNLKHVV

[5] = biological target: T3, Histone deacetylase 7 (Homo sapiens) (UniProt Q8WUI4); assay: Inhibition of HDAC7 (unknown origin)
T3 sequence (whole entry): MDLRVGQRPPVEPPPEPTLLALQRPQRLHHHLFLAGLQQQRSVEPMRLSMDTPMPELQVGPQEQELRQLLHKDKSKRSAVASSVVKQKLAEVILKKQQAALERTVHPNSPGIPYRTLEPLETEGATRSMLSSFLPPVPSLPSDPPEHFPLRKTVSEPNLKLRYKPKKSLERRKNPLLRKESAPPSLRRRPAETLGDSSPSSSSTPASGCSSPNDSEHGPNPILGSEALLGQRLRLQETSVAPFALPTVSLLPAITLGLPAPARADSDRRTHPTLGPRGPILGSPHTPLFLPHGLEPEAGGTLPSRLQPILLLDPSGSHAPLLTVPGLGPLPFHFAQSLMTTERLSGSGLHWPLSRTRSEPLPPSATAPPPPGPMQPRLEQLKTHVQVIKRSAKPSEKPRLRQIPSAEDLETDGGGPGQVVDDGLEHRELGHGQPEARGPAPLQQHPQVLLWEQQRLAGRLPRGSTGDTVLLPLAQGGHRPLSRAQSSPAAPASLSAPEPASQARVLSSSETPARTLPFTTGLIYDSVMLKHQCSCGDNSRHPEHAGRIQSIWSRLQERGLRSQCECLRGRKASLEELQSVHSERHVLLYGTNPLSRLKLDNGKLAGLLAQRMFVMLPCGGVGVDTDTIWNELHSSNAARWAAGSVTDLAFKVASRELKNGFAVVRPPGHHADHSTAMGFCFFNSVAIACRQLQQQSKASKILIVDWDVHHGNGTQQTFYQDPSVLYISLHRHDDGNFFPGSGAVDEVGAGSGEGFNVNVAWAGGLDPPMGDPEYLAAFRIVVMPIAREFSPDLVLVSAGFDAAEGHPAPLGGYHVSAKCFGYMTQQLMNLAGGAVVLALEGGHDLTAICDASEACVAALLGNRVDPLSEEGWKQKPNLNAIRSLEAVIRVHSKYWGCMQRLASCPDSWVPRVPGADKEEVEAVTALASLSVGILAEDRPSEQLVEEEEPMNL

Measured: inhibition

Histone deacetylase 2, sequence (Q92769 whole entry): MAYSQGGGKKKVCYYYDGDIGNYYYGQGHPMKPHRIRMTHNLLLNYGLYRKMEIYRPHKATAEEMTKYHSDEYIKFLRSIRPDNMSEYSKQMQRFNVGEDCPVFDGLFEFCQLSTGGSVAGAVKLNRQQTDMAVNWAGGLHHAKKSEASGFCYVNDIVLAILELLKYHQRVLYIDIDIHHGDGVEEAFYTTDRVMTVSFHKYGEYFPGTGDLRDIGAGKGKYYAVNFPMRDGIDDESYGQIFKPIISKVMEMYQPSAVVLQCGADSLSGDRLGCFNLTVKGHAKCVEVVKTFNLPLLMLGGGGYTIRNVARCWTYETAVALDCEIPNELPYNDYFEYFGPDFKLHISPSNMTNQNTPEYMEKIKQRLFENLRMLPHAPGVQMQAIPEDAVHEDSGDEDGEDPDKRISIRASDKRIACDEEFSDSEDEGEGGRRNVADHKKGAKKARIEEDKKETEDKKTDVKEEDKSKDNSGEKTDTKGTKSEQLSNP
Histone deacetylase 4 (Homo sapiens), sequence (P56524 whole entry): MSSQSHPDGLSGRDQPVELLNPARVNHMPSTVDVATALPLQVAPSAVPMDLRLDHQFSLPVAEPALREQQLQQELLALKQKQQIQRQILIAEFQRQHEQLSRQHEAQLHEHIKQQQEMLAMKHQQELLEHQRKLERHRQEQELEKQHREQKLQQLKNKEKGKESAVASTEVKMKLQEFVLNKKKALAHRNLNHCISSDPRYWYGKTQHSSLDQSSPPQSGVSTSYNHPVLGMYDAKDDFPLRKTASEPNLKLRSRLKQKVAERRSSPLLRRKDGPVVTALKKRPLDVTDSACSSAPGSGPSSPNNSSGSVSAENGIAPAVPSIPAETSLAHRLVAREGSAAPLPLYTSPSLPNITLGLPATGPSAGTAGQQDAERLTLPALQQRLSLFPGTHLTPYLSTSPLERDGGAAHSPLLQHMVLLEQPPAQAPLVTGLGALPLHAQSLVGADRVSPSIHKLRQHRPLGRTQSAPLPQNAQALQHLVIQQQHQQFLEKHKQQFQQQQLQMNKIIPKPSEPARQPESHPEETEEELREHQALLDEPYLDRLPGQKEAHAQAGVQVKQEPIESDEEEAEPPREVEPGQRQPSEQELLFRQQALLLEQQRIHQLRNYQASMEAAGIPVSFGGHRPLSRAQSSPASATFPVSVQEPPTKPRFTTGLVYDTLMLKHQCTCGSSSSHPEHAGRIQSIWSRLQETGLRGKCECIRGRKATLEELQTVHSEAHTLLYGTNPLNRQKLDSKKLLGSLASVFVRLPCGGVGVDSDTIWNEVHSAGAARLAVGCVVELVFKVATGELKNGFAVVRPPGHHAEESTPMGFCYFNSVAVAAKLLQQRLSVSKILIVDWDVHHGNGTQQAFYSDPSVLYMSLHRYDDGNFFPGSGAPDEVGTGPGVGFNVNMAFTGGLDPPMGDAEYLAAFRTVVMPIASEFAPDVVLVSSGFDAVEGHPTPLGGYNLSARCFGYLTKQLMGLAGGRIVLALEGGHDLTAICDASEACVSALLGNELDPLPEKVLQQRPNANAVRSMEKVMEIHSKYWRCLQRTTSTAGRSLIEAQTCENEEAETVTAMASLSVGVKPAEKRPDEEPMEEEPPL
Histone deacetylase 5 (Homo sapiens), sequence (Q9UQL6 whole entry): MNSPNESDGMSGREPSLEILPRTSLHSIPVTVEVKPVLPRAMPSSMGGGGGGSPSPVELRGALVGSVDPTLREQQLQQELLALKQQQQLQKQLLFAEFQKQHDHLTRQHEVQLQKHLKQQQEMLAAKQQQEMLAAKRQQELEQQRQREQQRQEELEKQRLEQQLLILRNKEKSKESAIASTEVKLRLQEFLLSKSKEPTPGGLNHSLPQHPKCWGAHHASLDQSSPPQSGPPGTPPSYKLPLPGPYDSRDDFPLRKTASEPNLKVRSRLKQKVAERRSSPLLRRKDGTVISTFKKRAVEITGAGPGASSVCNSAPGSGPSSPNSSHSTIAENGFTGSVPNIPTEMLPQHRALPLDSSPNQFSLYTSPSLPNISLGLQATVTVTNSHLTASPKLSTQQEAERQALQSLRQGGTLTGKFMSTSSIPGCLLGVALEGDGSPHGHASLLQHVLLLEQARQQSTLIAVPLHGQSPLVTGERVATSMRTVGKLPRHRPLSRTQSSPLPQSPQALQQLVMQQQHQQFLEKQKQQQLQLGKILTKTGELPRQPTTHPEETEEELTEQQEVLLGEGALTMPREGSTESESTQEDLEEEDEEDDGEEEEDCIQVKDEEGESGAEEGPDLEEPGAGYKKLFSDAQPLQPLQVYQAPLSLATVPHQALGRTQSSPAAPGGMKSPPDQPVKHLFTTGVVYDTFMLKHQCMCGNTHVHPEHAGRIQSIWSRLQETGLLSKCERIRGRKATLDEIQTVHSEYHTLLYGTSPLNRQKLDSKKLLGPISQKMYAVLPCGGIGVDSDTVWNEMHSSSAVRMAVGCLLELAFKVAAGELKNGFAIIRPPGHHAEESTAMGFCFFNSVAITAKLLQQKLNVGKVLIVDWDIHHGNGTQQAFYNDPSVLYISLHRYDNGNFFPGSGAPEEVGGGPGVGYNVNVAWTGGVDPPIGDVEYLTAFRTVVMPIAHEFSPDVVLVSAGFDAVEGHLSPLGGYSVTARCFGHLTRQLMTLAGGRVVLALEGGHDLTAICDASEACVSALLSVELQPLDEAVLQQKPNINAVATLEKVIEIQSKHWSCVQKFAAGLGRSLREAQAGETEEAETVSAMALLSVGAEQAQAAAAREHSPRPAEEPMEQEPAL

CC1(C)Cc2c(-c3ccc(Br)cc3)n[nH]c2C(C(N)=O)C1 (racemic)
inactive: all assays above

CC1(C)Cc2c(-c3ccc(Cl)c(Cl)c3)n[nH]c2C(C(N)=O)C1 (racemic)
inactive: all assays above

CCOC(=O)C1CCCc2c(-c3ccc(Cl)c(F)c3)n[nH]c21 (racemic)
inactive: all assays above

COc1ccc(-c2n[nH]c3c2CCCC3C(N)=O)cc1 (racemic)
inactive: all assays above

Cn1c(-c2n[nH]c3c2CC(C)(C)CC3C(N)=O)cc2ccccc21 (racemic)
inactive: all assays above

Cn1c(-c2n[nH]c3c2CCCC3C(N)=O)cc2cc(Cl)ccc21 (racemic)
inactive: all assays above

Cn1cc(-c2n[nH]c3c2CCCC3C(N)=O)c2ccccc21 (racemic)
inactive: all assays above

NC(=O)C1CCCCCc2c(-c3ccc(Cl)cc3)n[nH]c21 (racemic)
inactive: all assays above

NC(=O)C1CCCc2c(-c3cc4cc(Br)ccc4s3)n[nH]c21 (racemic)
inactive: all assays above

NC(=O)C1CCCc2c(-c3cc4ccccc4[nH]3)n[nH]c21 (racemic)
inactive: all assays above

NC(=O)C1CCCc2c(-c3ccc(C(F)(F)F)cc3)n[nH]c21 (racemic)
inactive: all assays above

NC(=O)C1CCCc2c(-c3ccc(Cl)cc3Cl)n[nH]c21 (racemic)
inactive: all assays above

NC(=O)C1CCCc2c(-c3ccc(F)cc3)n[nH]c21 (racemic)
inactive: all assays above

NC(=O)C1CCCc2c(-c3cccc(Cl)c3)n[nH]c21 (racemic)
inactive: all assays above

NC(=O)C1CCCc2c(-c3ccccc3Cl)n[nH]c21 (racemic)
inactive: all assays above

NC(=O)C1CCCc2c(-c3cccs3)n[nH]c21 (racemic)
inactive: all assays above

NC(=O)C1CCCc2c(-c3csc4ccccc34)n[nH]c21 (racemic)
inactive: all assays above
